US20090264338A1, “Inhibitor of Insulin Multimer Formation” (priority 2005, published 2009)

How the values were obtained:
[1] = system: Fc-fusion human insulin receptor; assay: BIACORE 2000 analysis of the interaction between insulin and insulin receptor in the presence of the peptides; type: binding; details: 5 μM insulin forming a hexamer in the presence of 100 μM ZnCl2, 500 μM peptide added
Protocol: A DNA sequence encoding the Fc-fusion human insulin receptor (Bass, J. J. Biol. Chem. 271, 19367 (1996)) was constructed and inserted into the vector pEF-BOS (Nucleic Acids Res. 1990 Sep. 11; 18(17): 5322). Mammalian cells, FreeStyle 293-F, were cultured at 37° C., and the concentration of the cells was adjusted to 1×10^6 cells/mL. The insulin receptor-expressing plasmid was mixed with Cellfectin (Invitrogen Corporation), and added to the cells, followed by culture for an additional two days. The obtained culture supernatant was purified by protein A affinity chromatography, to yield an Fc-fusion human insulin receptor.
Commercially available insulin (manufactured by Sigma-Aldrich Corp.) and the Fc-fusion human insulin receptor obtained by the method above (item (1)) were used to analyze the interaction between insulin and the insulin receptor (BIACORE 2000, manufactured by Biacore Medical Technologies, Inc.). First, PBS with or without 100 μM ZnCl2 was used to prepare 5 μM insulin solutions.
Subsequently, 500 μM INHD1 and INHD2 peptides were added to insulin that forms a hexamer in the presence of ZnCl2, and the interaction between insulin and the insulin receptor was observed.

[2] = target: T1, insulin hexamer (Homo sapiens, UniProt P01308); assay: Gel filtration chromatography of insulin hexamer formation in the presence of INHD peptide; type: biochemical; details: 5 μM insulin
T1 construct: purchased Sigma-Aldrich Corp
T1 sequence (P01308 25-54 limits assumed): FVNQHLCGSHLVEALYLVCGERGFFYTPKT
T1 sequence (P01308 90-110 limits assumed): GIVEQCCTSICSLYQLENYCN
Protocol: In order to separately detect insulin hexamers and insulin monomers, gel filtration chromatography was performed. PBS supplemented with 100 μM ZnCl2 was used as a solvent to form hexamers at a concentration of this experiment (5 μM). This is because zinc ion stabilizes insulin hexamers. For the 5 μM insulin solution, the hexamer was the main peak, and the ratio of the monomer was extremely low.
The insulin solution was subjected to gel filtration chromatography in the presence of the INHD peptide to show inhibition of insulin hexamer formation by the INHD peptide.

Row | Substance | receptor binding of insulin (interaction between insulin and the insulin receptor) [1] | peak which represents the insulin hexamer (gel filtration) ([2]; 500 μM peptide, PBS with 100 μM ZnCl2) | inhibition of hexamer formation (gel filtration) ([2]; PBS with 100 μM ZnCl2, compared with INHD1 peptide)
1 | INHD1: Designed peptide from insulin B-chain positions 5 to 29, with Glu/Lys introduced, Glu13 to Gln, Leu17 to Ala, Cys19 to Ser (HEEGSKKVQELYAKSGERGFFYTPK) | significantly increased to a level approximately equal to that with an insulin monomer | significantly decreased | 
2 | INHD2: Smaller designed peptide corresponding to the insulin B-chain α-helix at positions 5 to 20 (HEEGSKKVQELYAKSG) | significantly increased to a level approximately equal to that with an insulin monomer |  | slightly lower than that for the INHD1 peptide
